According to ChEMBL document CHEMBL1158651, “Centaurepensin: A Cytotoxic Constituent of Centaurea solstitialis and C. repens (Asteraceae)” (1979):
≈ marks a conversion by molar mass, not a printed value.

Assay: Cytotoxicity against human 9KB cells
Type: functional
Conditions: read-out: ED50 (the source's name)

SMILES: C=C1C(=O)O[C@H]2[C@H]1[C@@H](OC(=O)[C@](C)(O)CCl)CC(=C)[C@@H]1C[C@H](O)[C@](O)(CCl)[C@H]21 [CENTAUREPENSIN]
- EC50: 1.7 µg/mL (≈ 3.91 µM)
